# Measured values from ChEMBL document CHEMBL6153160, “Novel 3-Cycloaminoindole Compounds as Serotonergic Psychedelic Agents for Treating Psychosis, Mental Illness, and CNS Disorders” (ACS Med Chem Lett, 2025).
# Target: 5-hydroxytryptamine receptor 2A (Homo sapiens, UniProt P28223)
# Assay: Displacement of [3H]-ketanserin from human 5-HT2A receptor incubated for 90 mins by microbeta2 microplate counter assay
# Chain of 5-hydroxytryptamine receptor 2A (P28223 whole entry): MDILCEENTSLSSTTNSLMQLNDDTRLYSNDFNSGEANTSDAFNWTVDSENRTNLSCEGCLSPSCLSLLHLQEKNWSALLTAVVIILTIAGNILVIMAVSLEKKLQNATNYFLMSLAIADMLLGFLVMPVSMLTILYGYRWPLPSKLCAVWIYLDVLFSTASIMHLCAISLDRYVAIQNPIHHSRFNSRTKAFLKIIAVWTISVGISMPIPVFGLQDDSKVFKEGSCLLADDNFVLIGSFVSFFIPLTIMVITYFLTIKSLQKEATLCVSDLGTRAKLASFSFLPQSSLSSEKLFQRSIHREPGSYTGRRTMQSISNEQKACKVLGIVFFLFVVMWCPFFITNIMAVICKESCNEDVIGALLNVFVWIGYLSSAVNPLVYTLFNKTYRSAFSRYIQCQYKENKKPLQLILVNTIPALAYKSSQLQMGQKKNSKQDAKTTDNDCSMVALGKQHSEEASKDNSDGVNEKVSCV
row,SMILES,IC50
1,[2H]c1[nH]c2c([2H])c([2H])c([2H])c([2H])c2c1C1CCN(C)C1 (stereo not drawn),< 500 nM
2,[2H]c1[nH]c2c([2H])c([2H])c([2H])c([2H])c2c1C1CC([2H])([2H])N(C)C1([2H])[2H] (stereo not drawn),< 500 nM
3,CN(C)CCc1c[nH]c2ccccc12,< 500 nM
